Data published in ChEMBL document CHEMBL3862012, “Methylene versus carbonyl bridge in the structure of new tubulin polymerization inhibitors with tricyclic A-rings” (Bioorg Med Chem, 2016).

Experiment: Cytotoxicity against human ACHN cells assessed as growth inhibition after 48 hrs by SRB assay
Assay type: functional
Conditions: not given

SMILES | GI50 [nM]
COc1ccc(CN2c3ccccc3Sc3ccccc32)c(C(F)(F)F)c1 | 666
COc1ccc(CN2c3ccccc3CCc3ccccc32)cc1F | 604

Experiment: Cytotoxicity against human IGROV1 cells assessed as growth inhibition after 48 hrs by SRB assay
Assay type: functional
Conditions: IGROV-1, 48 h

SMILES | GI50 [nM]
COc1ccc(CN2c3ccccc3Sc3ccccc32)c(C(F)(F)F)c1 | 3430
COc1ccc(CN2c3ccccc3CCc3ccccc32)cc1F | 1570

Experiment: Cytotoxicity against human SF539 cells assessed as growth inhibition after 48 hrs by SRB assay
Assay type: functional
Conditions: SF-539, 48 h

SMILES | GI50 [nM]
COc1ccc(CN2c3ccccc3Sc3ccccc32)c(C(F)(F)F)c1 | 452
COc1ccc(CN2c3ccccc3CCc3ccccc32)cc1F | 287

Experiment: Cytotoxicity against human A498 cells assessed as growth inhibition after 48 hrs by SRB assay
Assay type: functional
Conditions: A498, 48 h

SMILES | GI50 [nM]
COc1ccc(CN2c3ccccc3Sc3ccccc32)c(C(F)(F)F)c1 | 372
COc1ccc(CN2c3ccccc3CCc3ccccc32)cc1F | 339

Experiment: Cytotoxicity against human SR cells assessed as growth inhibition after 48 hrs by SRB assay
Assay type: functional
Conditions: not given

SMILES | GI50 [nM]
COc1ccc(CN2c3ccccc3Sc3ccccc32)c(C(F)(F)F)c1 | 483
COc1ccc(CN2c3ccccc3CCc3ccccc32)cc1F | 463

Experiment: Cytotoxicity against human HOP62 cells assessed as growth inhibition after 48 hrs by SRB assay
Assay type: functional
Conditions: HOP-62, 48 h

SMILES | GI50 [nM]
COc1ccc(CN2c3ccccc3Sc3ccccc32)c(C(F)(F)F)c1 | 604
COc1ccc(CN2c3ccccc3CCc3ccccc32)cc1F | 529

Experiment: Cytotoxicity against human SNB75 cells assessed as growth inhibition after 48 hrs by SRB assay
Assay type: functional
Conditions: SNB-75, 48 h

SMILES | GI50 [nM]
COc1ccc(CN2c3ccccc3Sc3ccccc32)c(C(F)(F)F)c1 | 241
COc1ccc(CN2c3ccccc3CCc3ccccc32)cc1F | 277

Experiment: Cytotoxicity against human LOXIMVI cells assessed as growth inhibition after 48 hrs by SRB assay
Assay type: functional
Conditions: LOX IMVI

SMILES | GI50 [nM]
COc1ccc(CN2c3ccccc3Sc3ccccc32)c(C(F)(F)F)c1 | 832
COc1ccc(CN2c3ccccc3CCc3ccccc32)cc1F | 725

Experiment: Cytotoxicity against human A549 cells assessed as growth inhibition after 48 hrs by SRB assay
Assay type: functional
Conditions: A549, 48 h

SMILES | GI50 [nM]
COc1ccc(CN2c3ccccc3Sc3ccccc32)c(C(F)(F)F)c1 | 807
COc1ccc(CN2c3ccccc3CCc3ccccc32)cc1F | 732

Experiment: Cytotoxicity against human HOP92 cells assessed as growth inhibition after 48 hrs by SRB assay
Assay type: functional
Conditions: HOP-92, 48 h

SMILES | GI50 [nM]
COc1ccc(CN2c3ccccc3Sc3ccccc32)c(C(F)(F)F)c1 | 227
COc1ccc(CN2c3ccccc3CCc3ccccc32)cc1F | 587

Experiment: Cytotoxicity against human K562 cells assessed as growth inhibition at 10 uM after 48 hrs by SRB assay relative to control
Assay type: functional
Conditions: K562, 48 h, read-out: GI

SMILES | inhibition of growth at 10 µM [%]
COc1ccc(CN2c3ccccc3CCc3ccccc32)cc1F | 94

Experiment: Cytotoxicity against human MDA-MB-435 cells assessed as growth inhibition after 48 hrs by SRB assay
Assay type: functional
Conditions: MDA-MB-435, 48 h

SMILES | GI50 [nM]
COc1ccc(CN2c3ccccc3Sc3ccccc32)c(C(F)(F)F)c1 | 396
COc1ccc(CN2c3ccccc3CCc3ccccc32)cc1F | 187

Experiment: Cytotoxicity against human NCI-H23 cells assessed as growth inhibition after 48 hrs by SRB assay
Assay type: functional
Conditions: NCI-H23, 48 h

SMILES | GI50 [nM]
COc1ccc(CN2c3ccccc3Sc3ccccc32)c(C(F)(F)F)c1 | 1030
COc1ccc(CN2c3ccccc3CCc3ccccc32)cc1F | 672

Experiment: Cytotoxicity against human MALME-3M cells assessed as growth inhibition after 48 hrs by SRB assay
Assay type: functional
Conditions: not given

SMILES | GI50 [nM]
COc1ccc(CN2c3ccccc3Sc3ccccc32)c(C(F)(F)F)c1 | 21000

Experiment: Cytotoxicity against human UACC62 cells assessed as growth inhibition after 48 hrs by SRB assay
Assay type: functional
Conditions: UACC-62, 48 h

SMILES | GI50 [nM]
COc1ccc(CN2c3ccccc3Sc3ccccc32)c(C(F)(F)F)c1 | 917
COc1ccc(CN2c3ccccc3CCc3ccccc32)cc1F | 804

Experiment: Cytotoxicity against human HCC2998 cells assessed as growth inhibition at 10 uM after 48 hrs by SRB assay relative to control
Assay type: functional
Conditions: HCC 2998, 48 h, read-out: GI

SMILES | inhibition of growth at 10 µM [%]
COc1ccc(CN2c3ccccc3CCc3ccccc32)cc1F | 69

Experiment: Cytotoxicity against human SN12C cells assessed as growth inhibition after 48 hrs by SRB assay
Assay type: functional
Conditions: not given

SMILES | GI50 [nM]
COc1ccc(CN2c3ccccc3Sc3ccccc32)c(C(F)(F)F)c1 | 9730
COc1ccc(CN2c3ccccc3CCc3ccccc32)cc1F | 1950

Experiment: Cytotoxicity against human SK-MEL-28 cells assessed as growth inhibition after 48 hrs by SRB assay
Assay type: functional
Conditions: SK-MEL-28, 48 h

SMILES | GI50 [nM]
COc1ccc(CN2c3ccccc3CCc3ccccc32)cc1F | 820

Experiment: Cytotoxicity against human UACC62 cells assessed as growth inhibition at 10 uM after 48 hrs by SRB assay relative to control
Assay type: functional
Conditions: UACC-62, 48 h, read-out: GI

SMILES | inhibition of growth at 10 µM [%]
COc1ccc(CN2c3ccccc3CCc3ccccc32)cc1F | 75

Experiment: Cytotoxicity against human MCF7 cells assessed as growth inhibition after 48 hrs by SRB assay
Assay type: functional
Conditions: MCF7, 48 h

SMILES | GI50 [nM]
COc1ccc(CN2c3ccccc3Sc3ccccc32)c(C(F)(F)F)c1 | 349
COc1ccc(CN2c3ccccc3CCc3ccccc32)cc1F | 352

Experiment: Cytotoxicity against human MDA-MB-468 cells assessed as growth inhibition after 48 hrs by SRB assay
Assay type: functional
Conditions: MDA-MB-468, 48 h

SMILES | GI50 [nM]
COc1ccc(CN2c3ccccc3Sc3ccccc32)c(C(F)(F)F)c1 | 275
COc1ccc(CN2c3ccccc3CCc3ccccc32)cc1F | 399

Experiment: Cytotoxicity against human SN12C cells assessed as growth inhibition at 10 uM after 48 hrs by SRB assay relative to control
Assay type: functional
Conditions: read-out: GI

SMILES | inhibition of growth at 10 µM [%]
COc1ccc(CN2c3ccccc3CCc3ccccc32)cc1F | 61

Experiment: Cytotoxicity against human PC3 cells assessed as growth inhibition after 48 hrs by SRB assay
Assay type: functional
Conditions: PC-3, 48 h

SMILES | GI50 [nM]
COc1ccc(CN2c3ccccc3Sc3ccccc32)c(C(F)(F)F)c1 | 546
COc1ccc(CN2c3ccccc3CCc3ccccc32)cc1F | 489

Experiment: Cytotoxicity against human DU145 cells assessed as growth inhibition after 48 hrs by SRB assay
Assay type: functional
Conditions: DU-145, 48 h

SMILES | GI50 [nM]
COc1ccc(CN2c3ccccc3Sc3ccccc32)c(C(F)(F)F)c1 | 2080
COc1ccc(CN2c3ccccc3CCc3ccccc32)cc1F | 481

Experiment: Cytotoxicity against human RPMI8226 cells assessed as growth inhibition after 48 hrs by SRB assay
Assay type: functional
Conditions: RPMI-8226, 48 h

SMILES | GI50 [nM]
COc1ccc(CN2c3ccccc3Sc3ccccc32)c(C(F)(F)F)c1 | 3000
COc1ccc(CN2c3ccccc3CCc3ccccc32)cc1F | 644

Experiment: Cytotoxicity against human OVCAR8 cells assessed as growth inhibition after 48 hrs by SRB assay
Assay type: functional
Conditions: OVCAR-8, 48 h

SMILES | GI50 [nM]
COc1ccc(CN2c3ccccc3Sc3ccccc32)c(C(F)(F)F)c1 | 2220
COc1ccc(CN2c3ccccc3CCc3ccccc32)cc1F | 880

Experiment: Cytotoxicity against human OVCAR3 cells assessed as growth inhibition after 48 hrs by SRB assay
Assay type: functional
Conditions: OVCAR-3, 48 h

SMILES | GI50 [nM]
COc1ccc(CN2c3ccccc3Sc3ccccc32)c(C(F)(F)F)c1 | 513
COc1ccc(CN2c3ccccc3CCc3ccccc32)cc1F | 285

Experiment: Cytotoxicity against human SKOV3 cells assessed as growth inhibition after 48 hrs by SRB assay
Assay type: functional
Conditions: SK-OV-3, 48 h

SMILES | GI50 [nM]
COc1ccc(CN2c3ccccc3Sc3ccccc32)c(C(F)(F)F)c1 | 5570
COc1ccc(CN2c3ccccc3CCc3ccccc32)cc1F | 471

Experiment: Cytotoxicity against human UO31 cells assessed as growth inhibition after 48 hrs by SRB assay
Assay type: functional
Conditions: UO-31, 48 h

SMILES | GI50 [nM]
COc1ccc(CN2c3ccccc3Sc3ccccc32)c(C(F)(F)F)c1 | 3980
COc1ccc(CN2c3ccccc3CCc3ccccc32)cc1F | 814

Experiment: Cytotoxicity against human OVCAR4 cells assessed as growth inhibition after 48 hrs by SRB assay
Assay type: functional
Conditions: OVCAR-4, 48 h

SMILES | GI50 [nM]
COc1ccc(CN2c3ccccc3Sc3ccccc32)c(C(F)(F)F)c1 | 2160
COc1ccc(CN2c3ccccc3CCc3ccccc32)cc1F | 868

Experiment: Cytotoxicity against human SF268 cells assessed as growth inhibition after 48 hrs by SRB assay
Assay type: functional
Conditions: SF-268, 48 h

SMILES | GI50 [nM]
COc1ccc(CN2c3ccccc3Sc3ccccc32)c(C(F)(F)F)c1 | 10900
COc1ccc(CN2c3ccccc3CCc3ccccc32)cc1F | 660

Experiment: Inhibition of sheep brain tubulin polymerization by DAPI staining-based fluorimetric method
Set-up: species or system Ovis aries
Conditions: not given

SMILES | IC50 [nM]
COc1ccc(CN2c3ccccc3CCc3ccccc32)cc1F | 6400

Experiment: Cytotoxicity against human EKVX cells assessed as growth inhibition after 48 hrs by SRB assay
Assay type: functional
Conditions: not given

SMILES | GI50 [nM]
COc1ccc(CN2c3ccccc3Sc3ccccc32)c(C(F)(F)F)c1 | 1200
COc1ccc(CN2c3ccccc3CCc3ccccc32)cc1F | 1550

Experiment: Cytotoxicity against human RXF393 cells assessed as growth inhibition after 48 hrs by SRB assay
Assay type: functional
Conditions: RXF 393, 48 h

SMILES | GI50 [nM]
COc1ccc(CN2c3ccccc3Sc3ccccc32)c(C(F)(F)F)c1 | 380
COc1ccc(CN2c3ccccc3CCc3ccccc32)cc1F | 312
